These results are taken from patent US9815774B1, “Hydrodabcyl” (Universität Bayreuth, priority 2014, dated 2017).

In brackets after ≈: the same amount, converted by molar mass. Several values for one entry are separate records, joined by “and”; a condition that tells them apart may be missing. Equal entries are not always repeated. Where two headings read alike, the source gives them in different places.

The test system of data set [1] is circular and linear double-stranded DNA pBR322. Nature of the data set: Electrophoretic Mobility Shift Assay (EMSA). The data set is classed as binding. The settings on record: 24 h incubation, 0, 5, 10, 25, 50 μM, agarose gel. As for the experimental part: The DNA was incubated for 24 hours with various concentrations (0, 5, 10, 25, 50 μM) of (a) doxorubicin and (b) Hydrodabcyl. FIGS. 6a and 6b show the ethidium bromide staining of DNA separated by agarose gel electrophoresis. […] The DNA was incubated for 24 hours with various concentrations (0, 5, 10, 25, 50 μM) of (a) doxorubicin and (b) Hydrodabcyl. FIGS. 7a and 7b show the ethidium bromide staining of DNA separated by agarose gel electrophoresis. […] Circular and linear double-stranded DNA was incubated with various concentrations of Hydrodabcyl and doxorubicin (a known intercalating substance). After 24 h of incubation time, agarose gel electrophoresis was carried out.
A general note: A gel shift assay detects complexes by their altered migration in electrophoresis.

Data set [2] can be described thus: Solubility tests in water and buffered aqueous solutions. The data set is classed as physicochemical. The settings on record: for appearance in water: about 7 μM.
The test system of data set [3] is HT-29. Nature of the data set: Cytotoxicity assay, HT-29. It counts as cell-based. The settings on record: Homo sapiens, incubation for 72 hours, 5 to 100 μM. As for the experimental part: (§1) Three different cell culture types were incubated with various concentrations (from 5 to 100 μM) of Hydrodabcyl.
Data set [4] relates to CHF. Kind of data set: Cytotoxicity assay, CHF. The data set is classed as cell-based. The settings on record: incubation for 72 hours, 5 to 100 μM. The method, then:
as §1

Data set [5] is described as follows: Solubility tests in water and buffered aqueous solutions. It counts as physicochemical. The settings on record: for solubility: 50 mM NaP buffer, pH 8.0. The text has this: The excellent solubility of the bare chromophore in aqueous solution already confers to Hydrodabcyl several practical advantages, e.g., aqueous solutions of Hydrodabcyl are easier to prepare and glassware can be more readily cleansed. Nevertheless, in most of applications the chromophores are linked to the molecules of interest. For example, to monitor protease activity chromophores are usually linked to the peptidic substrate. Both dabcyl and Hydrodabcyl can be easily coupled to an amino group through a standard amide bond formation. […] To investigate the behavior of dabcyl and Hydrodabcyl coupled to an amino acid bearing an amino group, dabcyl and Hydrodabcyl were linked to the amino group of a Lys side chain, and the solubility of the Lys-dabcyl and Lys-Hydrodabcyl moieties in a buffered aqueous solution at pH 8 were tested.
Buffered solutions (50 mM sodium phosphate) have been prepared at four different pH: 8.0, 7.0, 6.0 and 5.5, respectively. The amount of Hydrodabcyl required to reach a concentration of 5 mM was immersed in each buffer solution and kept for 1 h at 30° C. in an ultrasonic bath. […] To confirm its solubility, the absorbance of Hydrodabcyl was monitored as function of its concentration. Since the stock solution was too concentrated to be measured directly, three diluted solutions with different concentrations (10 μM, 20 μM and 30 μM) were prepared from each stock solution at pH 8.0, pH 7.0 and pH 6.0. The aliquots have been taken from different part of the volume of the stock solution to test the homogeneity.
To reach complete solubility at pH<6.0, the pH of the stock solution (5 mM range) at pH 7.0 was decreased at the desired value with few drops of 5M HCl. Following gradual acidification of the medium the mM solution of Hydrodabcyl remained clear till pH 4.3. […] At pH<4.3 Hydrodabcyl precipitates.

Data set [6] can be described thus: Stability under light exposure. It counts as physicochemical. The settings on record: for effect of light exposure on absorption spectrum: 17.5 μM in DMSO, 5 minutes, 60 W tungsten lamp; for absorbance under 2-hour continuous irradiation at absorption maximum: spectrophotometer beam, 7200 s. The method, then:
The effect of exposure to the light beam of a commercial spectrophotometer was tested to mimic the common experimental condition.
One solution of dabcyl and one of Hydrodabcyl, both at 17.5 μM in DMSO prepared in the dark, were exposed for 5 minutes to the light of a common 60 W tungsten lamp.

Data set [7] in a line: Absorption spectra. It counts as physicochemical. The conditions noted are these: for ε (molar absorbance): 20° C. The method, then:
Double beam Perkin Elmer Lambda 750 UV/Vis spectrophotometer equipped with a thermostated cuvette holder was used to record the absorption spectra over a wavelength range 200-800 nm at 20° C.
The quartz cuvettes with 1 cm light path used were from Hellma.

In data set [8] the test system is EaHy.926. Kind of data set: Cytotoxicity assay, EaHy.926. The data set is classed as cell-based. The settings on record: Homo sapiens, EA.hy 926, incubation for 72 hours, 5 to 100 μM. As for the experimental part: as §1
In data set [9] the test system is oocytes of Xenopus laevis. Kind of data set: Influence on embryogenesis of injected oocytes. It counts as in vivo. The settings on record: conclusion from Table 2. As for the experimental part:
Two sorts of labelled molecules were injected into oocytes of Xenopus laevis: • A molecule labelled with monobromobimane (mBBr; a fluorescent dye, which emits light in the absorption spectrum of Hydrodabcyl); the molecule is called Substrate-Bim • A molecule labelled with mBBr and Hydrodabcyl (a fluorescence quencher); the molecule is called Bim-Substrate-Hydrodabcyl The effect on embryogenesis of the molecules injected into the oocytes as described in Example 5 was observed.

For data set [10] the following is noted: water, reported [8]; cited from earlier work.
[11] abbreviates: sodium phosphate buffer, aqueous buffer, thermodynamic from solid, read-out: Solubility.

What is called solubility is the concentration that dissolves in the medium under given conditions. The IC50 is the midpoint of a concentration-inhibition curve. High values mean weaker potency in that assay, low ones greater potency in that assay.

As for `CN(C)c1cc(O)c(/N=N/c2ccc(C(=O)O)c(O)c2)c(O)c1` [Hydrodabcyl, 4-((4′-(dimethylamino)2′,6′-dihydroxyphenyl)azo)2-hydroxybenzoic acid], the “shift of DNA bands / intercalation into DNA” value in data set [1] is on record as “does not intercalate or bind to the DNA”. Further, the solubility in data set [2] (thermodynamic from solid, Water, 20° C., pH = 4.5, read-out: Solubility) worked out at 571 µM (≈ 181 µg/mL); in data set [5] (setting [11]) it was 25400 µM (≈ 8060 µg/mL). In [2] (water), the appearance in water entry is recorded as “clear solution”. The IC50 in [3] was above 50 µM; in [4], above 100 µM; in data set [8], above 50 µM. For the same molecule, the “dissolution at 5 mM, direct preparation” value is “not completely soluble” in data set [5] (50 mM sodium phosphate pH 5.5, 1 h at 30° C. ultrasonic bath); “Clear solutions” in data set [5] (50 mM sodium phosphate pH 6.0, 1 h at 30° C. ultrasonic bath); “Clear solutions” in [5] (50 mM sodium phosphate pH 7.0, 1 h at 30° C. ultrasonic bath); “Clear solutions” in [5] (50 mM sodium phosphate pH 8.0, 1 h at 30° C. ultrasonic bath). Moreover, the solubility thermodynamic in data set [5] (aqueous buffer, thermodynamic from solid, buffered aqueous solution at pH 8, read-out: concentration of saturated solution) amounted to 25000 µM (≈ 7930 µg/mL). The “effect of light exposure on absorption spectrum” value in data set [6] is reported as “no effect on the absorption spectrum”. In [6] (DMSO, 20° C.), the “absorbance under 2-hour continuous irradiation at absorption maximum” value is on record as “constant signal”. The “ε (molar absorbance)” value in data set [7] (50 mM sodium phosphate buffer pH=8.0, 2×10^−5 M, at 445 nm) was found to be 43000 ± 1000 L/mol/cm; in data set [7] (DMSO, 2×10^−5 M, at 470 nm) it was 37000 ± 1000 L/mol/cm. Moreover, the λmax in data set [7] (2×10^−5 M in DMSO at 20° C.) was 470 nm; in data set [7] (aqueous solution, 50 mM sodium phosphate buffer pH=8.0, 20° C.), 445 nm. Further, the “ε470 (molar absorbance)” value in data set [7] (DMSO) is 37000 M⁻¹ cm⁻¹. For the same molecule, in data set [7] (aqueous solution), the “ε445 (molar absorbance)” value was determined as 43000 M⁻¹ cm⁻¹. In data set [9], the influence on embryogenesis entry is on record as “does not influence embryogenesis”.
With `NCCCC[C@H](N)C(=O)O` [L-Lys, reference compound], the solubility entry is on record as “about 40 mM” in data set [2] (water, converted from 5.8 g per 1 kg) and 5.8 g per 1 kg of water in [10].
As to `CN(C)c1ccc(N=Nc2ccc(C(=O)NCCCCC(N)C(=O)O)cc2)cc1` (stereo not shown) [Lys-dabcyl, reference compound], in data set [5], the solubility was 7.6 µM and 7.62 µM.
As for `CN(C)c1ccc(/N=N/c2ccc(C(=O)O)cc2)cc1` [dabcyl, 4-(4′-dimethylamino-phenylazo)benzoic acid], in [2] (water), the appearance in water entry is “precipitation”. The solubility in data set [5] (setting [11]) was determined as 541 µM (≈ 146 µg/mL). Moreover, the “effect of light exposure on absorption spectrum” value in [6] was “strongly modify the absorption spectrum”. The “absorbance under 2-hour continuous irradiation at absorption maximum” value in data set [6] (DMSO, 20° C.) is recorded as “constant signal”. Moreover, the “time in the dark to recover original spectrum” value in [6] (after 5 min 60 W tungsten lamp, DMSO, 20° C.) is 10 min. Also, the λmax in data set [7] (2×10^−5 M in DMSO at 20° C.) came out at 451 nm.
For `COc1cccc2c1C(=O)c1c(O)c3c(c(O)c1C2=O)C[C@@](O)(C(=O)CO)C[C@@H]3O[C@H]1C[C@H](N)[C@H](O)[C@H](C)O1` [doxorubicin, reference compound], the “shift of DNA bands / intercalation into DNA” value in [1] is recorded as “shift of the DNA bands with increasing doxorubicin concentration”.
